Experimental data taken from patent US11458139B2, “Use of BRAF inhibitors for treating cutaneous reactions caused by treatment with a MEK inhibitor” (MEMORIAL SLOAN KETTERING CANCER CENTER, priority 2017, dated 2022).

System: MAPK (ERK)
Assay: ERK phosphorylation (Phospho-ERK/total ERK) in normal human keratinocytes HEKa, Western blot
Format: cell-based
Details: 2 hours treatment; for effect on ERK activation: concentration not given (0.3 μM and 1 μM tested); for ERK activation (increase in the relative amount of Phosphorylated ERK): 0.3 μM (FIGS. 1A and 1C)
Method: Normal human keratinocytes HEKa (purchased from Gibco Rhenium) were seeded in 10 cm dishes (300,000 cells/dish) and incubated overnight at 37° C., 5% CO2. The medium was then replaced with a starvation medium for 2 hours and the cells were subsequently treated for 2 additional hours with the test compounds (i.e BRAF inhibitors). […]
Post incubation, the cells were lysed with RIPA buffer and the protein extracts were analyzed by Western blot to detect Phospho-ERK and total ERK using suitable antibodies. Untreated cells and 0.1% DMSO treated cells were used as negative control and Human Keratinocyte Growth Supplement (HKGS) (Gibco) was used as a positive control.
Western Blot: 7.5 μg of total extract was loaded on 10% or 12% acrylamide gel. Following transfer, the membranes were blocked with TBST/5% skimmed milk and then incubated with Mouse anti Phospho-ERK (1:1000 in TBST 5% BSA, ON at 4° C.) and goat anti Mouse HRP (1:10,000 in TBST 5% BSA, 1-hour RT). The membranes were exposed using SuperSignal West Pico Chemiluminescent Substrate.
HRP was subsequently inactivated by incubating the membranes for 1 hour with 0.5% sodium azide. Following washes and ECL exposure in order to ensure absence of signal, the membranes were re-blocked for 15 min with TBST/5% skimmed milk and then incubated with Rabbit anti total ERK2 (1:500 in TBST 5% BSA, ON at 4° C.), goat anti Rabbit HRP (1:5,000 in TBST 5% BSA, 1-hour RT) and finally exposed using the SuperSignal West Pico Chemiluminescent Substrate. The films were scanned and the signal was quantified using ImageJ software. The results were calculated as Phospho-ERK/total ERK.
In this experiment, the effect of the BRAF inhibitor compounds disclosed herein on MAPK (ERK) phosphorylation in human keratinocytes (HEKa) was investigated. Phosphorylation of ERK served as an indicator for ERK activation.
In order to determine the effect of various BRAF inhibitors on ERK activation in relevant keratinocytes cells, the level of ERK phosphorylation was measured in normal human keratinocytes in response to treatment with the BRAF inhibitors.

Compound	effect on ERK activation	ERK activation (increase in the relative amount of Phosphorylated ERK)
CNc1ncc2cc(-c3c(C)ccc4c(Nc5ccc(F)c(Cl)c5)nccc34)ccc2n1 [LUT195]	moderate effect on ERK activation	–
CNc1cc(-c2cccnc2Nc2c(C)ccc3c(Nc4ccc(I)cc4F)nccc23)ncn1 [LUT156]	–	significant ERK activation
C#Cc1cccc(Nc2nccc3c(-c4ccc5nc(NC)ncc5c4)c(C)ccc23)c1 [LUT192]	moderate effect on ERK activation	–
CNc1ncc2ccc(-c3c(C)ccc4c(Nc5cc(O)cc(O)c5)nccc34)cc2n1 [LUT001]	moderate effect on ERK activation	–
CNc1ncc2cc(-c3c(C)ccc4c(Nc5ccc(Cl)c(C(F)(F)F)c5)nccc34)ccc2n1 [LUT197]	–	significant ERK activation
